From patent publication US8987267B2, “2-substituted-8-alkyl-7-OXO-7,8-dihydropyrido[2,3-D]pyrimidine-6-carbonitriles and uses thereof in treating proliferative disorders” (Temple University—of the Commonwealth System of Higher …, priority 2010, dated 2015)
pIC50: −log10 of the molar value.

Legend:
[1] = system: GRANTA-519; assay: Cytotoxicity assay, viable cell count; type: cell-based; conditions: Homo sapiens; GRANTA-519, MCL; 96 h continuous treatment, trypan blue
Description: (§1) Cells (1×10^5) were plated into 6-well dishes and 24 h later 8-cyclopentyl-2-((4-(4-methylpiperazin-1-yl)phenyl)amino)-7-oxo-7,8-dihydropyrido[2,3-d]pyrimidine-6-carbonitrile (12) was added at five different concentrations over a 2 log dilution (1-100 μM). The total number of viable cells was determined after 96 h of continuous treatment by staining with trypan blue and counting the number of non-staining cells (viable) remaining in each well using a hemacytometer. The percentage of viable cells remaining was calculated as follows: # viable cells (compound treated)/# viable cells (DMSO treated)*100.

[2] = system: HCT-15; assay: Cytotoxicity assay, viable cell count; type: cell-based; conditions: Homo sapiens; HCT-15, Colon (MDR elevated); 96 h continuous treatment, trypan blue
Description: as §1

[3] = system: HELA; assay: Cytotoxicity assay, viable cell count; type: cell-based; conditions: Homo sapiens, Cervical, 96 h continuous treatment, trypan blue
Description: as §1

[4] = system: SNU-5; assay: Cytotoxicity assay, viable cell count; type: cell-based; conditions: Homo sapiens; SNU-5, Gastric; 96 h continuous treatment, trypan blue
Description: as §1

[5] = system: Z138C; assay: Cytotoxicity assay, viable cell count; type: cell-based; conditions: MCL, 96 h continuous treatment, trypan blue
Description: as §1

[6] = target: CDK4/Cyclin D3 (Homo sapiens, UniProt P11802); assay: Kinase inhibition panel; type: biochemical; conditions: 10 μM ATP
CDK4/Cyclin D3, sequence (P11802 whole entry, species assumed): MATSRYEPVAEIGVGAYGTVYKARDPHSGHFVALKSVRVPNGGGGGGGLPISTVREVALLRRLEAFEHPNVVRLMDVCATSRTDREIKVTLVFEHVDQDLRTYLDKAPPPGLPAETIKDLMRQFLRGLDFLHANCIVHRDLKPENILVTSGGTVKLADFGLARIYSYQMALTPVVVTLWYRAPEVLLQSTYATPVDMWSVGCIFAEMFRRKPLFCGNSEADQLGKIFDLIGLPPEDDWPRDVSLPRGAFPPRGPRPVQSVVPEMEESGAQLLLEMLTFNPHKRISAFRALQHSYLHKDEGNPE
CDK4/Cyclin D3, sequence (P30281 whole entry partner, species assumed): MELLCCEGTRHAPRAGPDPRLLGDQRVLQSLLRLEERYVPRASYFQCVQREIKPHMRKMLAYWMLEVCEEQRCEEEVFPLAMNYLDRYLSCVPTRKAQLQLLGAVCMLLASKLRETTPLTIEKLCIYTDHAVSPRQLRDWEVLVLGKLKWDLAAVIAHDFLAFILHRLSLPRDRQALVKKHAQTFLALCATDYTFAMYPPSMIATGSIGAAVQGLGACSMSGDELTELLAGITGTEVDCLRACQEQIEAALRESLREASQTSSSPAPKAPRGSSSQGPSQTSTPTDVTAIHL

[7] = target: CDK6/cyclinD3 (Homo sapiens, UniProt Q00534); assay: Kinase inhibition panel; type: biochemical; conditions: 10 μM ATP
[8] = target: CDK7/cyclinH/MNAT1 (Homo sapiens, UniProt P50613); assay: Kinase inhibition panel; type: biochemical; conditions: 10 μM ATP
[9] = target: EphB2/HEK5 (Homo sapiens, UniProt P29323); assay: Kinase inhibition panel; type: biochemical; conditions: 10 μM ATP
EphB2/HEK5, sequence (P29323 19-1055): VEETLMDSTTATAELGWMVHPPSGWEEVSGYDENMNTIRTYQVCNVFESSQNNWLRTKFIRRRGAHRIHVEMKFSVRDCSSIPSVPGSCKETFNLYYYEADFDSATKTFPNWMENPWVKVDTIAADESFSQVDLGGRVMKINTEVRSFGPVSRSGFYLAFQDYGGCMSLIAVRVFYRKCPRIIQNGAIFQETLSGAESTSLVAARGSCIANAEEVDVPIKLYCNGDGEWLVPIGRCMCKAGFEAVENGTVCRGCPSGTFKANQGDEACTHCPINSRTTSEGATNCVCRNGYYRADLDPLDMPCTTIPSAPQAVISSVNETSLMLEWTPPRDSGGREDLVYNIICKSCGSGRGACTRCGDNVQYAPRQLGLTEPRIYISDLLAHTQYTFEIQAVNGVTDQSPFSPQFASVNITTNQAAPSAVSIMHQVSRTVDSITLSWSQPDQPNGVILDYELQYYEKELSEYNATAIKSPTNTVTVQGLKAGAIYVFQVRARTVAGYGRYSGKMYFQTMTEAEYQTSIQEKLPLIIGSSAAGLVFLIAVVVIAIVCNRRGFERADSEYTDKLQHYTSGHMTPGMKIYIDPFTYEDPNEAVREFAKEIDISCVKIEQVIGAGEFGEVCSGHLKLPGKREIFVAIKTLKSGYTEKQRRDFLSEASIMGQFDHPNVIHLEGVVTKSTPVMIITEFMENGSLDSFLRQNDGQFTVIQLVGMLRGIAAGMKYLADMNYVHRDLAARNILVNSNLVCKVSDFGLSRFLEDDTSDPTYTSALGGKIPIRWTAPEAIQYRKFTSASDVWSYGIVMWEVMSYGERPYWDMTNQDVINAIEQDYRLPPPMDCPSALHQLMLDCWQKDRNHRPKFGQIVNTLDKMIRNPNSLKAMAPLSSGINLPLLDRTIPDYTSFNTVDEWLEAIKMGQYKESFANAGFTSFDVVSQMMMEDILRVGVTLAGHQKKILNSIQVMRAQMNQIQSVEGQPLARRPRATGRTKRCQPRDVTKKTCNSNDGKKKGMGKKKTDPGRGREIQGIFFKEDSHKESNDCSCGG

[10] = target: FGFR2 (Homo sapiens, UniProt P21802); assay: Kinase inhibition panel; type: biochemical; conditions: 10 μM ATP
[11] = target: FGR (Homo sapiens, UniProt P09769); assay: Kinase inhibition panel; type: biochemical; conditions: 10 μM ATP
[12] = target: FLT3 (Homo sapiens, UniProt P36888); assay: Kinase inhibition panel; type: biochemical; conditions: 10 μM ATP
[13] = target: FLT4NEGFR3 (Homo sapiens, UniProt P35916); assay: Kinase inhibition panel; type: biochemical; conditions: 10 μM ATP
FLT4NEGFR3, sequence (P35916 25-1363): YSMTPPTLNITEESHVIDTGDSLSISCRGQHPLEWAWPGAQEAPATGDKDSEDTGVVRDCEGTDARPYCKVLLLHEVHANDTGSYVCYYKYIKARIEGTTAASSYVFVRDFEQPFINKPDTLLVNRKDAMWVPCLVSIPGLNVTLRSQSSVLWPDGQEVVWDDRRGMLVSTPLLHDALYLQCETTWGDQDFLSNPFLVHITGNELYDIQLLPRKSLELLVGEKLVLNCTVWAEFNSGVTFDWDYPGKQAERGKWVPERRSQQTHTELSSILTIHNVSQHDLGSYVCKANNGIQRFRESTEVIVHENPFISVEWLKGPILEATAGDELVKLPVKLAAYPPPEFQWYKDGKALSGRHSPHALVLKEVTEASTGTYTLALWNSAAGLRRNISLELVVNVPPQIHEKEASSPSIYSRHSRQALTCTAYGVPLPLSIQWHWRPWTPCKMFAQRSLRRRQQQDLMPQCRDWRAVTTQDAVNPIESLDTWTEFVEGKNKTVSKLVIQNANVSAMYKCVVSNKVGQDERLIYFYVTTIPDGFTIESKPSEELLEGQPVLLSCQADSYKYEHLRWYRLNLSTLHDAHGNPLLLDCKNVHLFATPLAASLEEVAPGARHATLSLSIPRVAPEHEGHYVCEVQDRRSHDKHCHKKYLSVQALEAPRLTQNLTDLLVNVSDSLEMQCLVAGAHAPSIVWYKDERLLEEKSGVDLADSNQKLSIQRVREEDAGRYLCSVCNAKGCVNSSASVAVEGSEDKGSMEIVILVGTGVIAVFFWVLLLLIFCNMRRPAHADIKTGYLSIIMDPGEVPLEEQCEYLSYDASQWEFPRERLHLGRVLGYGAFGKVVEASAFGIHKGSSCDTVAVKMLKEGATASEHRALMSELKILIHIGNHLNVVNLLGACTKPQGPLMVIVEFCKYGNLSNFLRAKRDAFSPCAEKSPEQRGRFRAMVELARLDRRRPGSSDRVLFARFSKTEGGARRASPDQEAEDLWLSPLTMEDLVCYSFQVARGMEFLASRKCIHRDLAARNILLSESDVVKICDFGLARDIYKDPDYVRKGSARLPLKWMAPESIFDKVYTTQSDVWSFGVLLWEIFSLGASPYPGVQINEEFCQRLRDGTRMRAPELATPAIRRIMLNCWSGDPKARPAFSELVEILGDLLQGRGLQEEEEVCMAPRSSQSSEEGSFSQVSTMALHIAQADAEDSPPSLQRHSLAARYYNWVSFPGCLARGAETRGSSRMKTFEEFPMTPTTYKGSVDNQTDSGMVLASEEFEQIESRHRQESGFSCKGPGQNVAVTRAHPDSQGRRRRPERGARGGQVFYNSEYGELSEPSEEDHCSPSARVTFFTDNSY

[14] = target: LYN (Homo sapiens, UniProt P07948); assay: Kinase inhibition panel; type: biochemical; conditions: 10 μM ATP
[15] = target: PDGFRb (Homo sapiens, UniProt P09619); assay: Kinase inhibition panel; type: biochemical; conditions: 10 μM ATP
[16] = target: PKCmu (Homo sapiens, UniProt Q15139); assay: Kinase inhibition panel; type: biochemical; conditions: 10 μM ATP
[17] = target: TAOK1 (Homo sapiens, UniProt Q7L7X3); assay: Kinase inhibition panel; type: biochemical; conditions: 10 μM ATP
[18] = target: TBK1 (Homo sapiens, UniProt Q9UHD2); assay: Kinase inhibition panel; type: biochemical; conditions: 10 μM ATP
TBK1, sequence (Q9UHD2 whole entry, species assumed): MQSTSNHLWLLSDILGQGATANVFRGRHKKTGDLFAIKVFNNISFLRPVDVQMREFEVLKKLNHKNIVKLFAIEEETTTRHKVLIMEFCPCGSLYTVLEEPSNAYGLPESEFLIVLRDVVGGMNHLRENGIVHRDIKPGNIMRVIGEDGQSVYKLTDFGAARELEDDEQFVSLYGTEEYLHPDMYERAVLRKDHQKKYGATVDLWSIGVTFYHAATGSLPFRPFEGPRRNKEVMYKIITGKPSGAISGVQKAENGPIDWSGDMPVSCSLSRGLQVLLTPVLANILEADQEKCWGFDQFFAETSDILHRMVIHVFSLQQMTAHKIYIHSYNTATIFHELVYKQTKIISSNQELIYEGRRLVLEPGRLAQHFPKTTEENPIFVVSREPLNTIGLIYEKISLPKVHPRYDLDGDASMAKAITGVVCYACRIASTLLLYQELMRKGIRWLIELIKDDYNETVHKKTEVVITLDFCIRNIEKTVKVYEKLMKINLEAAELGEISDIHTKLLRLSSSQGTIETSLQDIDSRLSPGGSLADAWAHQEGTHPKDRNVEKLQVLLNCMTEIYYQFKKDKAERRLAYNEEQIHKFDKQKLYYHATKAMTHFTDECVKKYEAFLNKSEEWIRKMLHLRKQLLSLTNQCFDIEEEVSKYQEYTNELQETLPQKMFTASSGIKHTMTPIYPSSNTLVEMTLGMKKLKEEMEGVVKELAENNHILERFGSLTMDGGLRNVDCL

[19] = target: YES/YES1 (Homo sapiens, UniProt P07947); assay: Kinase inhibition panel; type: biochemical; conditions: 10 μM ATP
YES/YES1, sequence (P07947 whole entry): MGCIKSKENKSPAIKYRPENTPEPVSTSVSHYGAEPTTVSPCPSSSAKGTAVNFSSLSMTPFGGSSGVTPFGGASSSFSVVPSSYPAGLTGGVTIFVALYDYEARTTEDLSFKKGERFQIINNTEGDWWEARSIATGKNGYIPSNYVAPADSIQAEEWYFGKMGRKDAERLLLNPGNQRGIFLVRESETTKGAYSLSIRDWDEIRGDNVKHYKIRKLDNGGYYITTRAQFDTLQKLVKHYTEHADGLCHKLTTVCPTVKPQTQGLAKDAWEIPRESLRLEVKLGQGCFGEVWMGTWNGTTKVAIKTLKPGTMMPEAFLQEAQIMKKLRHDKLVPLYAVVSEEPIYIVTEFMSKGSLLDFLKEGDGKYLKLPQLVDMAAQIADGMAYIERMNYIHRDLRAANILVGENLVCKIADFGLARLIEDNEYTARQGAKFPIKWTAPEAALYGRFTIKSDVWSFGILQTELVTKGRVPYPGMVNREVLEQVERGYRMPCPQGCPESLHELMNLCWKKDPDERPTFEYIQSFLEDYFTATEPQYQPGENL

[20] = target: ZAK/MLTK (Homo sapiens, UniProt Q9NYL2); assay: Kinase inhibition panel; type: biochemical; conditions: 10 μM ATP
ZAK/MLTK, sequence (Q9NYL2 whole entry): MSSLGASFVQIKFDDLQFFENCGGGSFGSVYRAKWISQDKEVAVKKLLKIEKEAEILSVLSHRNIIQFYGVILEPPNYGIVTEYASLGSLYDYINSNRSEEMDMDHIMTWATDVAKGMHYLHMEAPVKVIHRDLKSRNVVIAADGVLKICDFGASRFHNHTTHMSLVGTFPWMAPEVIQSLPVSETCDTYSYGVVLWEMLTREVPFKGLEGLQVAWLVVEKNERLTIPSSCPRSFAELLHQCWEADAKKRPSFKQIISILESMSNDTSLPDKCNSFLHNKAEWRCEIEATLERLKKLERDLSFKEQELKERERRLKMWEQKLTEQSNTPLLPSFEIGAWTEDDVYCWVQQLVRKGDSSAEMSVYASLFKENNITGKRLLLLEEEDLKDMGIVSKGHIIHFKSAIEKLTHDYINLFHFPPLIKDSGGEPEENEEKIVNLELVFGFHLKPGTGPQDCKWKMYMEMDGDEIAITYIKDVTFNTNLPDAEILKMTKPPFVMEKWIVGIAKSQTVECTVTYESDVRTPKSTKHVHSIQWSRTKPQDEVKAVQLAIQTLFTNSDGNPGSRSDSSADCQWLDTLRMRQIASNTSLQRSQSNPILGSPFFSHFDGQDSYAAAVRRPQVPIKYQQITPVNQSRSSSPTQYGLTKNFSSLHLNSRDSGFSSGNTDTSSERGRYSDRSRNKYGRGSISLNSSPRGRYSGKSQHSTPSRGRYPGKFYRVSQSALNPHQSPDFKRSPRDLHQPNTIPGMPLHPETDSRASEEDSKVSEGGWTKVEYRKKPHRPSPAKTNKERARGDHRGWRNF

pIC50 [6]: 7.67
pIC50 [7]: 7.41
pIC50 [8]: < 5.00
pIC50 [9]: 6.89
pIC50 [10]: 7.26
pIC50 [11]: 6.95
pIC50 [12]: 7.87
pIC50 [13]: 7.20
pIC50 [14]: 7.16
pIC50 [15]: 8.58
pIC50 [16]: 6.85
pIC50 [17]: 7.10
pIC50 [18]: 7.14
pIC50 [19]: 7.42
pIC50 [20]: 7.53
Compound: CN1CCN(c2ccc(Nc3ncc4cc(C#N)c(=O)n(C5CCCC5)c4n3)cc2)CC1 [Compound 12, 8-cyclopentyl-2-((4-(4-methylpiperazin-1-yl)phenyl)amino)-7-oxo-7,8-dihydropyrido[2,3-d]pyrimidine-6-carbonitrile]
GI50 [1]: 75 nM
GI50 [2]: 400 nM
GI50 [3]: 750 nM
GI50 [4]: 200 nM
GI50 [5]: 25 nM
